Where a name gives a salt, the structure may show the parent alone. Read-outs that look alike come from different tables or passages of the source.

The results in this text go back to patent US5936097A, “4,9-ethano-benzo(F)isoindole derivatives as farnesyl transferase inhibitors” (Rhone-Poulenc Rorer, S.A., priority 1995, dated 1999).

This test concerns the target T1, human farnesyl transferase (Homo sapiens, UniProt P49354+P49356).
T1 construct: human farnesyl transferase purified from THP1 cell cultures; endogenous in cells; host or cells: THP1 cell cultures (enzyme purified from the cells)
Put plainly: inhibition of farnesyl transferase ((3H) farnesyl transfer from (3H) FPP to p21 H-ras). In kind it is biochemical. Here is the method: Farnesyl transferase activity is determined by the amount of (^3 H) farnesyl transferred from (^3 H) farnesylpyrophosphate [(^3 H) FPP] to the p21 H-ras protein. The standard reaction mixture is composed, for a final volume of […], of 50 mM Tris-HCl, 5 mM MgCl2, 5 mM dithiotreitol, 0.2% octyl b-D-glucopyranoside, 200 picomol p21 H-ras, 4.5 picomol (^3 H) FPP (activity 61000 dpm/picomol).
Reaction is initiated by adding approximately 5 ng of human farnesyl transferase purified from THP1 cell cultures. After incubation for 20 minutes at 37° C. in a microtitration plate containing 96 1-cm^3 wells per plate (Titer Plate®, Beckman), the reaction is stopped by adding 0.4 cm^3 of 0.1% SDS in methanol at 0° C. The mixture is then treated with 0.4 cm^3 of 30% trichloroacetic® acid (TCA) in methanol. The plates are left in ice for 1 hour. The precipitated contents are then retained on Filtermat®, Pharmacia), glass® fibre membranes with the filtration unit (Combi Cell Harvester®, Skatron), and rinsed with 6% trichloroacetic acid in distilled water. The membranes are dried in a microwave oven, then impregnated with scintillation medium by melting of Meltilex® (Pharmacia) under hot air, and lastly counted in cpm in a b-Plate counter® (LKB). Each test is repeated 3 times.
The unit of activity is defined as 1 picomole of (^3 H) FPP transferred to p21 H-ras in 20 minutes.
The percentage inhibition values are obtained by comparison of the tests with and without inhibitor after deduction of blanks, the IC50 values being measured on the basis of the inhibitions obtained with 9 different concentrations using Enzfitter® or Grafit® software.

Setting [1] is: human farnesyl transferase purified from THP1 cell cultures, p21 H-ras substrate, 20 minutes at 37° C., 9 concentrations, read-out: in vitro inhibitory activity IC50.

`COc1ccccc1CC(=O)N1C[C@@H]2[C@]3(c4ccccc4)CC[C@@H](c4ccccc43)[C@]2(C(=O)N(C)CC(=O)O)C1` (relative stereo) [Example 49, N-[(3aRS,4SR,9SR,9aRS)-4,9-ethano-2-(2-methoxyphenyl)acetyl-9-phenyl-2,3,3a,4,9,9a-hexahydro-1H-benzo[f]isoindol-3a-yl]carbonyl-N-methylglycine]: under setting [1], the IC50 is 1100 nM.

`COc1ccccc1NC(=O)N1C[C@@H]2[C@]3(c4ccccc4)CC[C@@H](c4ccccc43)[C@]2(C(=O)O)C1` (relative stereo) [Example 66, (3aRS,4SR,9SR,9aRS)-4,9-Ethano-2-(2-methoxyphenyl)aminocarbonyl-9-phenyl-2,3,3a,4,9,9a-hexahydro-1H-benzo[f]isoindole-3a-carboxylic acid]: it took 9200 nM to reach half-maximal inhibition (IC50).

For `C=C(C(=O)N1C[C@H]2[C@@]3(c4ccccc4)CC[C@H](c4ccccc43)[C@@]2(C(=O)O)C1)c1ccccc1OC` [Example 39, (3aS,4R,9R,9aS)-4,9-ethano-2-[2-(2-methoxyphenyl)prop-2-en-1-oyl]-9-phenyl-1,2,3,3a,9,9a-hexahydro-1H-benzo[f]isoindole-3a-carboxylic acid], the IC50 under setting [1] is 50 nM.

For the compound `COc1ccccc1CC(=O)N1C[C@H]2[C@@]3(c4ccccc4)CC[C@H](c4ccccc43)[C@@]2(C(=O)NC(CC(=O)O)C(=O)O)C1` (stereo partly drawn) [Example 6, N-[(3aRS, 4SR, 9SR, 9aRS)-4,9-ethano-2-(2-methoxyphenyl)acetyl-9-phenyl-2,3,3a,4,9,9a-hexahydro-1H-benzo[f]isoindolyl-3a-carbonyl]aspartic acid], under setting [1], the IC50 turned out to be 1100 nM.

In turn, `COc1ccccc1CC(=O)N1C[C@@H]2[C@]3(c4ccccc4)CC[C@@H](c4ccc(I)cc43)[C@]2(C(=O)O)C1` (relative stereo) [Example 43, (3aRS,4SR,9SR,9aRS)-4,9-ethano-7-iodo-2-(2-methoxyphenyl)acetyl-9-phenyl-2,3,3a,4,9,9a-hexahydro-1H-benzo[f]isoindole-3a-carboxylic acid] displayed an IC50 of 700 nM.

For the compound `COC(=O)CNC(=O)[C@]12CN(C(=O)Cc3ccccc3OC)C[C@H]1[C@@]1(c3ccccc3)CC[C@@H]2c2ccccc21` (relative stereo) [Example 69, methyl ester of N-[(3aRS,4SR,9SR,9aRS)-4,9-ethano-2-(2-methoxyphenyl)acetyl-9-phenyl-2,3,3a,4,9,9a-hexahydro-1H-benzo[f]isoindol-3a-yl]carbonylglycine], the IC50 under setting [1] is 9100 nM.

As for `COc1ccccc1C(C(=O)N1C[C@@H]2[C@]3(c4ccccc4)CC[C@@H](c4ccccc43)[C@]2(C(=O)O)C1)=C(C)C` (racemic) [Example 79, (3aRS,4SR,9SR,9aRS)-4,9-ethano-2-[2-(2-methoxyphenyl)-3-methyl-2-butenoyl]-9-phenyl-2,3,3a,4,9,9a-hexahydro-1H-benzo[f]isoindole-3a-carboxylic acid], the IC50 under setting [1] came to 5050 nM.

For `COc1ccccc1CC(=O)N1C[C@H]2[C@@]3(c4ccccc4)CC[C@H](c4ccccc43)[C@@]2(NC(=O)CC(=O)O)C1` (relative stereo) [Example 16, (3aRS, 4SR, 9SR, 9aRS)-4,9-ethano-3a-carboxylacetylamino-2-(2-methoxyphenyl)acetyl-9-phenyl-2,3,3a,4,9,9a-hexahydro-1H-benzo[f]isoindole], under setting [1], the concentration for half-maximal inhibition (IC50) came to 3030 nM.

On to `COc1ccccc1CC(=O)N1C[C@H]2[C@@]3(c4ccccc4)CC[C@H](c4ccccc43)[C@@]2(NC(=O)CCC(=O)O)C1` (relative stereo) [Example 17, (3aRS, 4SR, 9SR, 9aRS)-4,9-ethano-3a-(3-carboxypropionyl)amino-2-(2-methoxyphenyl)acetyl-9-phenyl-2,3,3a,4,9,9a-hexahydro-1H-benzo[f]isoindole], for which the IC50 under setting [1] was 4900 nM.

Compound `COc1ccccc1[C@@H](C)C(=O)N1CC2C3(c4ccccc4)CCC(c4ccccc43)C2(C(=O)O)C1` (single isomer, unassigned) [Example 33] came in with an IC50 of 2030 nM.

`COc1ccccc1CC(=O)N1C[C@H]2[C@@]3(c4ccccc4)CC[C@H](c4ccccc43)[C@@]2(CSCCC(=O)O)C1` (relative stereo) [Example 26, 3-[(3aRS, 4SR, 9SR, 9aRS)-4,9-ethano-2-(2-methoxyphenyl)acetyl-9-phenyl-2,3,3a,4,9,9a-hexahydro-1H-benzo[f]isoindol-3a-yl]methylthiopropanoic acid]: the IC50 under setting [1] was 2300 nM.

Consider `COc1ccccc1CC(=O)N1C[C@H]2[C@@]3(c4ccccc4)CC[C@H](c4ccccc43)[C@@]2(C(=O)NCCN(C)C)C1` (relative stereo) [Example 4, (3aRS, 4SR, 9SR, 9aRS)-N-(2-dimethylaminoethyl)-4,9-ethano-2-(2-methoxyphenyl)acetyl-9-phenyl-2,3,3a,4,9,9a-hexahydro-1H-benzo[f]isoindole-3a-carboxamide], for which, under setting [1], the IC50 is 9400 nM.

Regarding `C=C(C(=O)N1C[C@H]2[C@@]3(c4ccccc4)CC[C@H](c4ccccc43)[C@@]2(C(=O)N[C@H](C)c2cccc3ccccc23)C1)c1ccccc1OC` [Example 83, (3aS,4R,9R,9aS)-N-[(R)-1-(1-naphthyl)ethyl]-4,9-ethano-2-[(2-methoxyphenyl)prop-2-en-1-oyl]-9-phenyl-2,3,3a,4,9,9a-hexahydro-1H-benzo[f]isoindole-3a-carboxamide], under setting [1], the IC50 was determined as 5150 nM.

Consider `COc1ccccc1CC(=O)N1C[C@H]2[C@@]3(c4ccccc4)CC[C@H](c4ccccc43)[C@@]2(NC(=O)C(CO)NC(=O)OC(C)(C)C)C1` (stereo partly shown) [Example 14], for which the IC50 under setting [1] is 8700 nM.

Regarding `O=C(Cc1ccccc1OCCCN1CCCC1)N1C[C@H]2[C@@]3(c4ccccc4)CC[C@H](c4ccccc43)[C@@]2(C(=O)O)C1` (relative stereo) [Example 32, hydrochloride of (3aRS, 4SR, 9SR, 9aRS)-4,9-ethano-2-[2-(3-pyrrolidinylpropyl)oxyphenyl]-acetyl-9-phenyl-2,3,3a,4,9,9a-hexahydro-1H-benzo[f]isoindole-3a-carboxylic acid], under setting [1], the IC50 came to 1330 nM.

Regarding `COc1ccccc1CC(=O)N1CC2C3(c4ccccc4)CCC(c4ccccc43)C2(C(=O)N[C@@H](CCSC)C(=O)O)C1` (stereo partly drawn) [Example 51, N-[(3aRS,4SR,9SR,9aRS)-4,9-ethano-2-(2-methoxy-phenyl)acetyl-9-phenyl-2,3,3a,4,9,9a-hexahydro-1H-benzo[f]isoindol-3a-yl]carbonyl-L-methionine], the IC50 under setting [1] came to 150 nM.

As to `COc1ccccc1CC(=O)N1C[C@H]2[C@@]3(c4ccccc4)CC[C@H](c4ccccc43)[C@@]2(C[n+]2ccccc2)C1` (relative stereo) [Example 18, N-[(3aRS, 4SR, 9SR, 9aRS)-4,9-ethano-2-(2-methoxyphenyl)acetyl-9-phenyl-2,3,3a,4,9,9a-hexahydro-1H-benzo[f]isoindolyl-3a-methyl]pyridinium trifluoromethanesulphonate], the IC50 under setting [1] is 10000 nM.

Take `COc1ccccc1CC(=O)N1C[C@H]2[C@@]3(c4ccccc4)CC[C@H](c4ccccc43)[C@@]2(C(=O)NC(CCC(=O)O)C(=O)O)C1` (stereo partly shown) [Example 7]: the IC50 under setting [1] amounted to 580 nM.

`C=C(C(=O)N1C[C@H]2[C@@]3(c4ccccc4)CC[C@H](c4ccccc43)[C@@]2(C(=O)NC2CCc3ccccc32)C1)c1ccccc1OC` (stereo partly drawn) [Example 84, (3aS,4R,9R,9aS)-N-[(R,S)-1-indanyl]-4,9-ethano-2-[(2-methoxyphenyl)prop-2-en-1-oyl]-9-phenyl-2,3,3a,4,9,9a-hexahydro-1H-benzo[f]isoindole-3a-carboxamide]: the IC50 under setting [1] came out at 330 nM.

`COc1ccccc1OC(=O)N1C[C@H]2[C@@]3(c4ccccc4)CC[C@H](c4ccccc43)[C@@]2(C(=O)O)C1` (relative stereo) [Example 27, (3aRS, 4SR, 9SR, 9aRS)-4,9-ethano-2-(2-methoxyphenyl)oxycarbonyl-9-phenyl-1,2,3,3a,9,9a-hexahydro-1H-benzo[f]isoindole-3a-carboxylic acid] had an IC50 of 5800 nM.

As to `C=C(C(=O)N1C[C@H]2[C@@]3(c4ccccc4)CC[C@H](c4ccccc43)[C@@]2(C(=O)NCc2cscn2)C1)c1ccccc1OC` [Example 96, (3aS,4R,9R,9aS)-N-[(4-thiazolyl)-methyl]-4,9-ethano-2-[(2-methoxyphenyl)prop-2-en-1-oyl]-9-phenyl-2,3,3a,4,9,9a-hexahydro-1H-benzo[f]isoindole-3a-carboxamide], the IC50 under setting [1] was determined as 360 nM.

On to `CNC(=O)[C@@]12CN(C(=O)Cc3ccccc3OC)C[C@@H]1[C@]1(c3ccccc3)CC[C@H]2c2ccccc21` (relative stereo) [Example 54, (3aRS,4SR,9SR,9aRS)-N-methyl-4,9-ethano-2-(2-methoxyphenyl)acetyl-9-phenyl-2,3,3a,4,9,9a-hexahydro-1H-benzo[f]isoindole-3a-carboxamide], for which the IC50 under setting [1] amounted to 4700 nM.

Broadly, the IC50 is the concentration at which inhibition is half-maximal.
